“Also recorded” adds a separate entry of the source. Read-outs that look alike come from different tables or passages of the source. Residues, ends and D or L forms follow the SMILES beside them.
Assays:
[1] = system: PC12 cells; assay: Protection of PC12 cells from Aβ cytotoxicity (LDH release / cell viability assay); format: cell-based
Experimental: Previous studies have shown that the native peptide fragments from the Aβ polypeptide, NA4 (SEQ ID NO: 3) and NA7 (SEQ ID NO: 4), are able to block Aβ channel activity and protect cells from Aβ cytotoxicity. […] The concentration required for 50% protection (half maximal effective concentration, EC50) for NAHIS04 was less than 1 μM (Panel B). It was also between 2-3 times less than the EC50 for either NA4 or NA7.

[2] = system: Aβ channel; assay: Aβ channels incorporated into planar lipid bilayers, ionic current recording; format: biochemical; settings: for blocking of the flow of ionic charges conducted by Aβ channels: His 41.5 μM, NAHIS compounds 16.6 μM (FIG. 5B); for blocking of Aβ channel current activity / reversibility of Aβ channel blockage after washing the chamber: planar lipid bilayer; for blocking of Aβ channel current activity: zero membrane potential; for time to block the flow of ionic charges through Aβ channels: 41.5 μM (FIG. 5B left plot); for reversibility of Aβ channel blockage after washing the chamber: after washing off the blocker; for time to reduce the flow of ionic charges through the membrane by 50%: 16.6 μM
Experimental: Planar Lipid Bilayer Methodology: A suspension of palmitoyloleoyl phosphatidylserine and palmitoyloleoyl phosphatidylethanolamine, (Avanti, Alabaster, Ala.) 1:1, in η-decane was prepared. This suspension was applied to an orifice of about 100-120 μm in diameter with a Teflon film separating two compartments, 1.2 ml volume each. The ionic solutions in the compartments contained asymmetrical concentrations of CsCl (200cis/50trans mM) and symmetrical 0.5 mM CaCl2 and 5 mM K-HEPES, pH 7. The two ionic compartments were electrically connected to the input of a voltage clamp amplifier. Current was recorded using a patch clamp amplifier and data were stored on computer disk memory. Off-line analysis of the channel activity was carried out using the software package pClamp (Axon Instruments, Foster City, Calif.). Incorporation of Aβ peptide into the bilayer was obtained by adding an aliquot of proteoliposome (Aβ-liposome) suspension to the solution in the cis side of the planar lipid bilayer chamber and stirring.
Preparation of Proteoliposomes: Liposomes were prepared by hydration of air-dried palmitoyloleoyl phosphatidylserine (10 mg) with 1 M potassium aspartate, pH 7.0 (1 ml), followed by water sonication for 5 min. The liposome suspension (50 μl) was mixed with a stock aqueous solution of Aβ peptide (1 mg/ml, obtained from Bachem, Torrance, Calif. and from AnaSpec, San Jose, Calif.), followed by sonication.
Based on the theoretical model proposed by Durell et al. (1994), the predicted pore region of the Aβ channel is made of the hydrophilic structure composed of residues 1-16. The structure formed by a radial polymer of four to six Aβ subunits predicts that rings of His residues surround and form the path for the ions passing through the pore. […] This interaction will block the entrance to the Aβ pore, and consequently affect the flow of current through the Aβ channel. Therefore, various compounds of known His coordinating capacity were studied for their interaction with Aβ channels incorporated into planar lipid bilayers. No membrane potential difference was applied to the lipid bilayers, to avoid any disturbing effect the membrane potential may have on the channel activity and in the conformations of the channel.
Here the effectiveness of the His-coordinating and His-related compounds was studied in terms of the time required to block the Aβ channel currents. […] When Aβ channels are incorporated into artificial membranes, they form multi-conductance systems. This is manifested by frequently fluctuating conductance between specific levels. […] The results were analyzed by an alternative procedure that quantifies the total ionic current flowing through the Aβ channel incorporated into the artificial lipid membrane at any given time. For this purpose, we integrated the total ionic current flowing through the membrane and averaged the amount of charge conducted in consecutive time intervals of 8 msec duration.
Planar Lipid Bilayer Methodology and Preparation of Proteoliposomes: The experiments were performed as described previously except that the suspension of palmitoyloleoyl phosphatidylserine and palmitoyloleoyl phosphatidylethanolamine was applied to an orifice of about 80-100 μm in diameter with a Teflon film separating two compartments. In addition, the liposome suspension (50 μl) was mixed with a stock aqueous solution of Aβ40 (1 mg/ml; obtained from Invitrogen, Carlsbad, Calif.).

[3] = system: PC12 cells; assay: Aβ-induced intracellular free calcium change in FURA-2AM loaded PC12 cells; format: cell-based, rat; settings: Aβ 7.66 μM; for block of Aβ-induced intracellular calcium increase: compound 16.66 μM, 15 minute time course
Experimental: Intracellular Free Calcium measurements: Cells were plated on glass cover slips coated with poly-L-lysine and loaded with 2 μM FURA-2AM (Molecular Probes) calcium sensitive probe in incubation buffer (135 mM NaCl, 5 mM KCl, 2.5 mM CaCl2, 1.2 mM MgCl2, 10 mM glucose, 10 mM Hepes, pH 7.4). After 30 min of loading period, cells were treated with Aβ (7.66 μM). The time course of changes in the emission from FURA-2AM was observed using an inverted epi-fluorescence/phase contrast microscope equipped with a low-light level integrating CCD camera+microphotometer assembly (InCy I/P-2 Imaging & Photometry System, Intracellular Imaging INC.)
A 15 minute time course experiment was performed of the intracellular free calcium change in six FURA-2AM loaded PC 12 cells before and after the addition of Aβ (7.66 μM) and Aβ+His-related compound (16.66 μM).
Experiments in this Example were performed to determine if there was concentration dependence blockage of the Aβ-induced intracellular calcium response by NAHIS04. A time course of the intracellular free calcium change was taken in FURA-2AM loaded PC12 cells before and after the addition of Aβ (7.66 μM) to media containing different concentrations of NAHIS04. FIG. 11 illustrates that the concentration of the Aβ channel blocker is important and that the most efficient concentration of NAHIS04 for the blockage occurred at >5 μM.

[4] = system: PC12 cells, cortical and hippocampal neurons; assay: cells; settings: for protection of cells from Aβ cytotoxicity: three days of incubation, XTT and LDH, three cell types; for protection of cells from Aβ cytotoxicity / concentration required for 50% protection (EC50): Aβ peptide 5 μM; for concentration required for 50% protection (EC50): three different types of cells, three days
Experimental: Cell culture: PC 12 cells, derived from a transplantable rat pheochromocytoma (ATCC # CRL 1721), were cultured in the recommended ATCC medium. Primary cultures of hippocampal and cortical neurons from […] rat brains were grown in neurobasal medium/B27 (GIBCO). For neurons preparation, pregnant rats were anesthetized and killed to extract the fetuses. For pain alleviation, the animals were anesthetized following recommendations in the 2000 Report of the American Veterinary Medical Association Panel on Euthanasia. Brains from the fetuses were dissected out and neuronal cell cultures prepared as in a previously described protocol (Simakova and Arispe, 2006).
Cell viability assays: The percentage of cells protected from Aβ-induced cell death by various treatments was evaluated by means of a colorimetric XTT assay (Cell Proliferation Kit II, Roche, Mannheim, Germany). The cytotoxicity was also directly measured by the release of lactate dehydrogenase (LDH) from the cytosol into the media (Cytotoxicity Detection Kit (LDH), Roche, Mannheim, Germany).
Cell viability was examined using two different assays. These were the colorimetric XTT assay that quantifies metabolically active cells, and an assay that measures the release of lactate dehydrogenase (LDH) from the cytosol into the media, which evaluates the cell membrane integrity. […] The left panels (A, C and E) show the results from the XTT assay expressed as a percentage of cytotoxicity, and the right panels (B, D and F) show the results from the measurements of LDH released from cells into the media expressed as a percentage of protection of cells.

**Q.** With CC(C)[C@H](NC(=O)[C@H](CCC(=O)O)NC(=O)[C@H](Cc1ccc(O)cc1)NC(=O)CNC(=O)[C@@H](N)CO)C(=O)N[C@@H](Cc1c[nH]cn1)C(=O)N[C@@H](Cc1c[nH]cn1)C(=O)O [NA4, SGYEVHH, reference compound] (H-SGYEVHH-OH) as the molecule, how does the “protection of PC12 cells from Aβ cytotoxicity” value ([1]; Example 5, LDH release, three days) read?
**A.** not as effective at blocking the Aβ channel as NAHIS04

**Q.** How did the “blocking of the flow of ionic charges conducted by Aβ channels” value (“blocking of the flow … by Aβ channels” for short) [2] turn out when CC(=O)N[C@@H](Cc1cncn1C)C(=O)N[C@@H](Cc1cncn1C)C(N)=O [NAHIS02-(π-Met), Ac-His-π-Met-His-π-Met-CONH2] was run?
**A.** showed no blocking capacity

**Q.** And the “blocking of Aβ channel current activity” value [2]?
**A.** did not affect the Aβ channel activity even at a fourfold higher concentration; also recorded: unable to block the Aβ channel activity even at a fourfold higher concentration

**Q.** What about the “protection of PC12 cells against Aβ” value ([1]; Example 6, LDH assay, Aβ40 for 24 hrs) of the same molecule?
**A.** did not protect the cells against Aβ

**Q.** What about the “block of Aβ-induced intracellular calcium increase” value [3] of the same molecule?
**A.** has lost this ability

**Q.** Which “time to block the flow of ionic charges through Aβ channels” value [2] does the source give for c1c[nH]cn1 [imidazole, reference compound] here?
**A.** 30 s

**Q.** What about the “reversibility of Aβ channel blockage after washing the chamber” value (“reversibility of Aβ channel blockage” below) [2] of the same molecule?
**A.** irreversibly block; also recorded: irreversible

**Q.** And the “blocking of Aβ channel current activity” value [2]?
**A.** full block of the channel

**Q.** What about the EC50 ([4]; Rattus norvegicus, PC-12, 72 h, read-out: concentration required for 50% protection (EC50)) of the same molecule?
**A.** 2000 to 3000 nM

**Q.** For [Cl][Ni][Cl] [Ni^2+, NiCl2, reference compound], which “time to block the flow of ionic charges through Aβ channels” value [2] is on record?
**A.** 120 s

**Q.** What about the “reversibility of Aβ channel blockage” value [2] of the same molecule?
**A.** irreversible

**Q.** What about the “reversibility of Aβ channel blockage” value ([2]; listed as nickel) of the same molecule?
**A.** irreversibly block

**Q.** And the “blocking of Aβ channel current activity” value [2]?
**A.** full block of the channel

**Q.** And the “toxicity of the compound to cells” value ([4]; high concentrations)?
**A.** cell-dependent toxicity at high concentrations

**Q.** And the “protection of cells from Aβ cytotoxicity” value [4]?
**A.** fully protect the cells against Aβ cytotoxicity

**Q.** Which “time to reduce the flow of ionic charges through the membrane by 50%” value [2] does the source give for CC(=O)N[C@@H](Cc1c[nH]cn1)C(=O)N[C@@H](Cc1c[nH]cn1)C(N)=O [NAHIS02, Ac-His-His-CONH2] here?
**A.** 125 s

**Q.** What about the “effect on Aβ channel current peaks” value ([2]; 16.66 μM) of the same molecule?
**A.** removed all current peaks

**Q.** And the “time to reduce the Aβ channel activity to occasional channel openings” value ([2]; 16.66 μM)?
**A.** several minutes

**Q.** And the “time to totally block the Aβ channel activity” value ([2]; 16.66 μM)?
**A.** less than three

**Q.** What about the “reversibility of Aβ channel blockage” value [2] of the same molecule?
**A.** reversed; also recorded: some recovery of channel activity

**Q.** And the “blocking of Aβ channel current activity” value [2]?
**A.** efficiently block the multiple conductances

**Q.** And the “concentration required for 50% protection (EC50)” value [4]?
**A.** below the micromolar levels

**Q.** What about the “block of Aβ-induced intracellular calcium increase” value [3] of the same molecule?
**A.** has the capacity to block Aβ-induced intracellular calcium increase

**Q.** With CC(=O)N[C@@H](Cc1c[nH]cn1)C(N)=O [NAHIS01, Ac-His-CONH2] as the molecule, how does the “blocking of the flow … by Aβ channels” value [2] read?
**A.** does not fully prevent the flow of ionic charges

**Q.** And the “blocking of Aβ channel current activity” value [2]?
**A.** more effective at reducing all current peaks at much lower concentrations than unmodified His; also recorded: did not operate as a full channel blocker; also recorded: very efficient at blocking the Aβ ion channel

**Q.** How did the “percent protection of PC12 cells from Aβ cytotoxicity” value ([1]; Example 9, cell viability assay (FIG. 13)) turn out when CC(=O)N[C@@H](CO)C(=O)NCC(=O)N[C@@H](Cc1ccc(O)cc1)C(=O)N[C@@H](CCC(=O)O)C(=O)N[C@H](C(=O)N[C@@H](Cc1c[nH]cn1)C(=O)N[C@@H](Cc1c[nH]cn1)C(N)=O)C(C)C [NA4mod, Ac-SGYEVHH-CONH2] (Ac-SGYEVHH-NH2) was run?
**A.** percent protection is similar to the protection shown by NAHIS04

**Q.** How did the “time to reduce the flow of ionic charges through the membrane by 50%” value [2] turn out when CC(=O)N[C@@H](Cc1c[nH]cn1)C(=O)N[C@@H](Cc1c[nH]cn1)C(=O)N[C@@H](Cc1c[nH]cn1)C(=O)N[C@@H](Cc1c[nH]cn1)C(N)=O [NAHIS04, Ac-His-His-His-His-CONH2] (Ac-HHHH-NH2) was run?
**A.** 15 s

**Q.** And the “effect on Aβ channel current peaks” value ([2]; 16.66 μM)?
**A.** removed all current peaks

**Q.** What about the “time to reduce the Aβ channel activity to occasional channel openings” value ([2]; 16.66 μM) of the same molecule?
**A.** 20 s

**Q.** And the “speed of 50% reduction of ionic charge flow compared to NAHIS02” value ([2]; NAHIS04 versus NAHIS02)?
**A.** eightfold

**Q.** And the “reversibility of Aβ channel blockage” value [2]?
**A.** irreversible; also recorded: stayed fully blocked after the chamber was washed

**Q.** What about the “blocking of Aβ channel current activity” value [2] of the same molecule?
**A.** efficiently block the multiple conductances

**Q.** And the “protection of cells from Aβ cytotoxicity” value [4]?
**A.** fully protected the three different types of cells against Aβ

**Q.** What about the “concentration required for 50% protection (EC50)” value [4] of the same molecule?
**A.** below the micromolar levels

**Q.** What about the “protection of PC12 cells from Aβ cytotoxicity” value [1] of the same molecule?
**A.** showed better protection of the cells

**Q.** And the EC50 ([1]; PC12 cells, LDH release, three days of incubation, read-out: concentration required for 50% protection (EC50))?
**A.** < 1000 nM

**Q.** What about the “most efficient concentration for blockage of the Aβ-induced intracellular calcium response” value ([3]; 0.83 to 6.64 μM tested) of the same molecule?
**A.** > 5 µM

**Q.** How did the “blocking of the flow … by Aβ channels” value [2] turn out when N[C@@H](Cc1c[nH]cn1)C(=O)O [His, L-histidine, reference compound] was run?
**A.** very slow-acting or had almost no channel-blocking capacity

**Q.** What about the “blocking of Aβ channel current activity” value [2] of the same molecule?
**A.** only affect the current peaks of 5.8 and 4.2 pA; also recorded: mildly reduces the Aβ channel activity
